Numbers after ± are expanded uncertainties.
Details: Liquid; for mass density: vibrating tube; for viscosity: Stony Brook Scientific falling needle HPHTV-100 viscometer

CCCCCCCC[n+]1ccn(C)c1.F[B-](F)(F)F [1-methyl-3-octylimidazolium tetrafluoroborate]
Details | mass density [kg/m3] | viscosity [mPa·s]
283.15 K, 100 kPa | 1114.58 ± 0.96 | –
283.15 K, 2000 kPa | 1115.49 ± 0.95 | –
283.15 K, 4000 kPa | 1116.46 ± 0.95 | –
283.15 K, 6000 kPa | 1117.44 ± 0.95 | –
283.15 K, 8000 kPa | 1118.4 ± 0.95 | –
283.15 K, 10000 kPa | 1119.31 ± 0.94 | –
283.15 K, 12000 kPa | 1120.25 ± 0.94 | –
283.15 K, 14000 kPa | 1121.19 ± 0.94 | –
283.15 K, 20000 kPa | 1123.96 ± 0.93 | –
283.15 K, 30000 kPa | 1128.45 ± 0.94 | –
283.15 K, 40000 kPa | 1132.79 ± 0.94 | –
283.15 K, 50000 kPa | 1136.9 ± 0.94 | –
283.15 K, 60000 kPa | 1140.94 ± 0.95 | –
283.53 K, 140 kPa | – | 774.7 ± 86
283.53 K, 680 kPa | – | 781 ± 86
283.55 K, 1680 kPa | – | 793.9 ± 88
283.55 K, 7960 kPa | – | 878.4 ± 98
283.6 K, 11830 kPa | – | 908.6 ± 100
283.6 K, 14620 kPa | – | 950.1 ± 110
283.61 K, 10090 kPa | – | 894.7 ± 100
283.63 K, 4380 kPa | – | 815.4 ± 91
283.65 K, 4110 kPa | – | 811.4 ± 90
283.67 K, 5540 kPa | – | 834.1 ± 93
283.72 K, 2750 kPa | – | 803.7 ± 89
288.15 K, 100 kPa | 1111.12 ± 0.95 | –
288.15 K, 2000 kPa | 1112.07 ± 0.95 | –
288.15 K, 4000 kPa | 1113.07 ± 0.95 | –
288.15 K, 6000 kPa | 1114.04 ± 0.95 | –
288.15 K, 8000 kPa | 1115.03 ± 0.95 | –
288.15 K, 10000 kPa | 1116.03 ± 0.94 | –
288.15 K, 12000 kPa | 1116.94 ± 0.94 | –
288.15 K, 14000 kPa | 1117.9 ± 0.94 | –
288.15 K, 20000 kPa | 1120.72 ± 0.94 | –
288.15 K, 30000 kPa | 1125.21 ± 0.94 | –
288.15 K, 40000 kPa | 1129.56 ± 0.95 | –
288.15 K, 50000 kPa | 1133.75 ± 0.95 | –
288.15 K, 60000 kPa | 1137.81 ± 0.95 | –
293.15 K, 100 kPa | 1107.68 ± 0.95 | –
293.15 K, 2000 kPa | 1108.68 ± 0.95 | –
293.15 K, 4000 kPa | 1109.68 ± 0.95 | –
293.15 K, 6000 kPa | 1110.66 ± 0.95 | –
293.15 K, 8000 kPa | 1111.66 ± 0.95 | –
293.15 K, 10000 kPa | 1112.63 ± 0.95 | –
293.15 K, 12000 kPa | 1113.61 ± 0.94 | –
293.15 K, 14000 kPa | 1114.55 ± 0.94 | –
293.15 K, 20000 kPa | 1117.38 ± 0.94 | –
293.15 K, 30000 kPa | 1121.95 ± 0.94 | –
293.15 K, 40000 kPa | 1126.31 ± 0.94 | –
293.15 K, 50000 kPa | 1130.56 ± 0.94 | –
293.15 K, 60000 kPa | 1134.64 ± 0.95 | –
293.65 K, 130 kPa | – | 403.7 ± 49
293.65 K, 2010 kPa | – | 409.7 ± 50
293.65 K, 4090 kPa | – | 423 ± 57
293.65 K, 4310 kPa | – | 418.7 ± 55
293.65 K, 6110 kPa | – | 433.3 ± 53
293.65 K, 6580 kPa | – | 434.4 ± 48
293.65 K, 8080 kPa | – | 447.6 ± 50
293.65 K, 10200 kPa | – | 458.3 ± 51
293.65 K, 12100 kPa | – | 466.6 ± 52
293.65 K, 14310 kPa | – | 478.8 ± 59
293.65 K, 14330 kPa | – | 483.6 ± 60
298.15 K, 100 kPa | 1104.31 ± 0.94 | –
298.15 K, 2000 kPa | 1105.26 ± 0.95 | –
298.15 K, 4000 kPa | 1106.28 ± 0.95 | –
298.15 K, 6000 kPa | 1107.31 ± 0.94 | –
298.15 K, 8000 kPa | 1108.29 ± 0.94 | –
298.15 K, 10000 kPa | 1109.29 ± 0.94 | –
298.15 K, 12000 kPa | 1110.27 ± 0.94 | –
298.15 K, 14000 kPa | 1111.29 ± 0.94 | –
298.15 K, 20000 kPa | 1114.12 ± 0.94 | –
298.15 K, 30000 kPa | 1118.74 ± 0.94 | –
298.15 K, 40000 kPa | 1123.16 ± 0.94 | –
298.15 K, 50000 kPa | 1127.47 ± 0.94 | –
298.15 K, 60000 kPa | 1131.57 ± 0.94 | –
303.15 K, 100 kPa | 1100.92 ± 0.95 | –
303.15 K, 2000 kPa | 1101.88 ± 0.94 | –
303.15 K, 4000 kPa | 1102.9 ± 0.94 | –
303.15 K, 6000 kPa | 1103.93 ± 0.94 | –
303.15 K, 8000 kPa | 1104.97 ± 0.94 | –
303.15 K, 10000 kPa | 1105.98 ± 0.94 | –
303.15 K, 12000 kPa | 1107.03 ± 0.94 | –
303.15 K, 14000 kPa | 1107.96 ± 0.94 | –
303.15 K, 20000 kPa | 1110.85 ± 0.94 | –
303.15 K, 30000 kPa | 1115.56 ± 0.94 | –
303.15 K, 40000 kPa | 1120.01 ± 0.93 | –
303.15 K, 50000 kPa | 1124.34 ± 0.94 | –
303.15 K, 60000 kPa | 1128.52 ± 0.93 | –
303.74 K, 13240 kPa | – | 258.3 ± 28
303.8 K, 2750 kPa | – | 227.3 ± 25
303.82 K, 14800 kPa | – | 261.8 ± 31
303.85 K, 4160 kPa | – | 230.6 ± 27
303.85 K, 5600 kPa | – | 233.6 ± 28
303.91 K, 8710 kPa | – | 241.6 ± 26
303.95 K, 11220 kPa | – | 250.7 ± 28
303.96 K, 160 kPa | – | 219.1 ± 26
304.01 K, 2040 kPa | – | 222.9 ± 26
304.03 K, 1190 kPa | – | 221.6 ± 24
304.05 K, 6140 kPa | – | 232.1 ± 28
304.05 K, 7390 kPa | – | 238.6 ± 26
308.15 K, 100 kPa | 1097.49 ± 0.95 | –
308.15 K, 2000 kPa | 1098.5 ± 0.94 | –
308.15 K, 4000 kPa | 1099.56 ± 0.94 | –
308.15 K, 6000 kPa | 1100.61 ± 0.94 | –
308.15 K, 8000 kPa | 1101.64 ± 0.94 | –
308.15 K, 10000 kPa | 1102.66 ± 0.94 | –
308.15 K, 12000 kPa | 1103.66 ± 0.94 | –
308.15 K, 14000 kPa | 1104.66 ± 0.94 | –
308.15 K, 20000 kPa | 1107.61 ± 0.93 | –
308.15 K, 30000 kPa | 1112.34 ± 0.93 | –
308.15 K, 40000 kPa | 1116.89 ± 0.93 | –
308.15 K, 50000 kPa | 1121.29 ± 0.93 | –
308.15 K, 60000 kPa | 1125.53 ± 0.93 | –
312.95 K, 650 kPa | – | 137.4 ± 15
312.95 K, 1600 kPa | – | 139.3 ± 16
313.05 K, 130 kPa | – | 137.3 ± 16
313.05 K, 2670 kPa | – | 141.1 ± 16
313.05 K, 4260 kPa | – | 142.8 ± 16
313.05 K, 6130 kPa | – | 145.7 ± 16
313.05 K, 8180 kPa | – | 150.2 ± 17
313.05 K, 10130 kPa | – | 152.7 ± 16
313.05 K, 12200 kPa | – | 157.1 ± 17
313.05 K, 14260 kPa | – | 161 ± 18
313.15 K, 100 kPa | 1094.13 ± 0.94 | –
313.15 K, 2000 kPa | 1095.13 ± 0.94 | –
313.15 K, 4000 kPa | 1096.26 ± 0.94 | –
313.15 K, 6000 kPa | 1097.28 ± 0.94 | –
313.15 K, 8000 kPa | 1098.3 ± 0.94 | –
313.15 K, 10000 kPa | 1099.33 ± 0.93 | –
313.15 K, 12000 kPa | 1100.39 ± 0.93 | –
313.15 K, 14000 kPa | 1101.41 ± 0.93 | –
313.15 K, 20000 kPa | 1104.39 ± 0.93 | –
313.15 K, 30000 kPa | 1109.19 ± 0.93 | –
313.15 K, 40000 kPa | 1113.81 ± 0.93 | –
313.15 K, 50000 kPa | 1118.25 ± 0.93 | –
313.15 K, 60000 kPa | 1122.52 ± 0.93 | –
318.15 K, 100 kPa | 1090.78 ± 0.94 | –
318.15 K, 2000 kPa | 1091.83 ± 0.93 | –
318.15 K, 4000 kPa | 1092.91 ± 0.94 | –
318.15 K, 6000 kPa | 1094 ± 0.93 | –
318.15 K, 8000 kPa | 1095.03 ± 0.93 | –
318.15 K, 10000 kPa | 1096.1 ± 0.93 | –
318.15 K, 12000 kPa | 1097.15 ± 0.93 | –
318.15 K, 14000 kPa | 1098.18 ± 0.93 | –
318.15 K, 20000 kPa | 1101.2 ± 0.93 | –
318.15 K, 30000 kPa | 1106.06 ± 0.93 | –
318.15 K, 40000 kPa | 1110.72 ± 0.93 | –
318.15 K, 50000 kPa | 1115.21 ± 0.93 | –
318.15 K, 60000 kPa | 1119.54 ± 0.93 | –
323.15 K, 100 kPa | 1087.45 ± 0.93 | –
323.15 K, 2000 kPa | 1088.5 ± 0.94 | –
323.15 K, 4000 kPa | 1089.6 ± 0.94 | –
323.15 K, 6000 kPa | 1090.68 ± 0.94 | –
323.15 K, 8000 kPa | 1091.76 ± 0.93 | –
323.15 K, 10000 kPa | 1092.8 ± 0.93 | –
323.15 K, 12000 kPa | 1093.87 ± 0.94 | –
323.15 K, 14000 kPa | 1094.9 ± 0.94 | –
323.15 K, 20000 kPa | 1097.97 ± 0.94 | –
323.15 K, 30000 kPa | 1102.88 ± 0.94 | –
323.15 K, 40000 kPa | 1107.6 ± 0.94 | –
323.15 K, 50000 kPa | 1112.12 ± 0.94 | –
323.15 K, 60000 kPa | 1116.48 ± 0.94 | –
323.43 K, 140 kPa | – | 83.7 ± 9.8
323.46 K, 680 kPa | – | 84.3 ± 9.8
323.55 K, 1710 kPa | – | 85 ± 9.9
323.56 K, 13080 kPa | – | 96.3 ± 11
323.58 K, 14330 kPa | – | 97.4 ± 12
323.63 K, 9640 kPa | – | 92.7 ± 11
323.65 K, 130 kPa | – | 83.6 ± 9.8
323.65 K, 2760 kPa | – | 85.9 ± 10
323.65 K, 6190 kPa | – | 88.2 ± 10
323.65 K, 11060 kPa | – | 93.2 ± 11
323.68 K, 4240 kPa | – | 86.8 ± 10
323.73 K, 8190 kPa | – | 90.2 ± 11
323.75 K, 10400 kPa | – | 92.1 ± 11
323.75 K, 12340 kPa | – | 94 ± 11

— the NIST ThermoML archive (doi:10.1016/j.jct.2009.11.014)
